# Measurements as given in publication PMC7026418, “The kinase polypharmacology landscape of clinical PARP inhibitors” (Scientific Reports, 2020).
# Like-named read-outs stand apart in the source and are kept apart here.
# Legend:
# Assay in all cases: biochemical
# Set-up in all cases: DiscoveRx KINOMEscan active site-directed competition binding; percent of control kinase bound to immobilised ligand
# [1] = molecular target: PIM2 (Homo sapiens, UniProt Q9P1W9)
# [2] = molecular target: ABL2 (Homo sapiens, UniProt P42684)
# [3] = molecular target: T1, ASK2 (Homo sapiens, UniProt O95382)
# T1 construct: gene MAP3K6
# T1 sequence (O95382 1-1288): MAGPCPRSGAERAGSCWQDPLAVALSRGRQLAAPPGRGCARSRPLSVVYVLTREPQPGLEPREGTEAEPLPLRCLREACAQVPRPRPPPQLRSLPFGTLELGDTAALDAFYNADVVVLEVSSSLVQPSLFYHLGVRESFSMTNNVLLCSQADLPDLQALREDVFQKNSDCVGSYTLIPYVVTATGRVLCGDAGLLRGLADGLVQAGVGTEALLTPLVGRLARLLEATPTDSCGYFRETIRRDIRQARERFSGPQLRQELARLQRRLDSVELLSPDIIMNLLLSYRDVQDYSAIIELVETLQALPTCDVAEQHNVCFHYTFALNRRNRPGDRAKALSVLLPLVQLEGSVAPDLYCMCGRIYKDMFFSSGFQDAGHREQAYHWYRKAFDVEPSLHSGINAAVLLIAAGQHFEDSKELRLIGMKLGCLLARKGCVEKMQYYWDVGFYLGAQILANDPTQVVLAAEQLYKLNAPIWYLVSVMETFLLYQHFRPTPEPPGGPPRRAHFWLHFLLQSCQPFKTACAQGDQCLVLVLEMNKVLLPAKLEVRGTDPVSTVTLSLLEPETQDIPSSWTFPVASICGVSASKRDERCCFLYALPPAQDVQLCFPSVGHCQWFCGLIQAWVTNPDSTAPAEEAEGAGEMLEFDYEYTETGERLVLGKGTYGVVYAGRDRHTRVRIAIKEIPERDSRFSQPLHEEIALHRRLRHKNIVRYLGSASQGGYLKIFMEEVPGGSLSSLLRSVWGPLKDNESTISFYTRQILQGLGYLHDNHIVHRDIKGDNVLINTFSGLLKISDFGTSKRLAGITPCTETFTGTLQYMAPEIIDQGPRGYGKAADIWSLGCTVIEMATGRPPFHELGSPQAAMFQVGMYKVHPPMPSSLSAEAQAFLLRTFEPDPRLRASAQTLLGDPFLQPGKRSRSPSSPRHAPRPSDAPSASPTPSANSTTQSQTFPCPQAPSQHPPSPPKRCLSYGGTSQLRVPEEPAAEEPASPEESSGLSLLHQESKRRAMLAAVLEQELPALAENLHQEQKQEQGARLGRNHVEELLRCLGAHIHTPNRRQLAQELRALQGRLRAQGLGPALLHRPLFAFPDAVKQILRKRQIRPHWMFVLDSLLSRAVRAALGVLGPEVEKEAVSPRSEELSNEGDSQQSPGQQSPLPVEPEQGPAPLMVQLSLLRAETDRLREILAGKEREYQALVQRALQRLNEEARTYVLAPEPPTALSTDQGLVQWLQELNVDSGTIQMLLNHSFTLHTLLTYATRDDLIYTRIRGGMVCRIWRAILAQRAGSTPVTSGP
# [4] = molecular target: T2, ABL1(F317L)-nonphosphorylated (Homo sapiens, UniProt P00519, F317L)
# T2 construct: nonphosphorylated
# [5] = molecular target: FLT1 (Homo sapiens, UniProt P17948)
# [6] = molecular target: T3, HIPK4 (Homo sapiens, UniProt Q8NE63)
# T3 sequence (Q8NE63 1-616): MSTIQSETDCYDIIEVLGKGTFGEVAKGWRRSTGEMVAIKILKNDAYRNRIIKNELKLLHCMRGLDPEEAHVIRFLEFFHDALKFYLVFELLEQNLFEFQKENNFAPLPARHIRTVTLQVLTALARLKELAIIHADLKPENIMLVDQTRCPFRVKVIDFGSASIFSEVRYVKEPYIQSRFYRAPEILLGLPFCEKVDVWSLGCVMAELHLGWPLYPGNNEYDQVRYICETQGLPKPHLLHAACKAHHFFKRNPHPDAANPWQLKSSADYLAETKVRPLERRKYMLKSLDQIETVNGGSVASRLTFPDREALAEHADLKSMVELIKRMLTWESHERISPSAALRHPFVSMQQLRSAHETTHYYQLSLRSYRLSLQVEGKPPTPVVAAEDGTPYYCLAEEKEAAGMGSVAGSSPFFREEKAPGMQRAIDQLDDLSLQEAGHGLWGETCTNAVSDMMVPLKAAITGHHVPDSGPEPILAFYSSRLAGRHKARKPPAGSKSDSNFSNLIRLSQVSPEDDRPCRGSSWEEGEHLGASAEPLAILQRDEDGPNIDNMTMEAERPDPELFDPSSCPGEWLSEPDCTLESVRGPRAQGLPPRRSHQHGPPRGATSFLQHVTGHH
# [7] = molecular target: CLK3 (Homo sapiens, UniProt P49761)
# [8] = molecular target: T4, RSK1(Kin.Dom.1-N-terminal) (Homo sapiens, UniProt Q15418)
# T4 construct: gene RPS6KA1; Kin.Dom.1-N-terminal
# [9] = molecular target: T5, NDR1 (Homo sapiens, UniProt Q15208)
# T5 construct: gene STK38
# [10] = molecular target: BMPR1A (Homo sapiens, UniProt P36894)
# [11] = read-out: Niraparib (MK-4827) / %Ctrl @ 10000nM
# [12] = read-out: Olaparib / %Ctrl @ 10000nM
# [13] = read-out: Rucaparib / %Ctrl @ 10000nM, binding competition, % of control
# [14] = read-out: Talazoparib (BMN 673) / %Ctrl @ 10000nM
# T5 sequence (Q15208 whole entry): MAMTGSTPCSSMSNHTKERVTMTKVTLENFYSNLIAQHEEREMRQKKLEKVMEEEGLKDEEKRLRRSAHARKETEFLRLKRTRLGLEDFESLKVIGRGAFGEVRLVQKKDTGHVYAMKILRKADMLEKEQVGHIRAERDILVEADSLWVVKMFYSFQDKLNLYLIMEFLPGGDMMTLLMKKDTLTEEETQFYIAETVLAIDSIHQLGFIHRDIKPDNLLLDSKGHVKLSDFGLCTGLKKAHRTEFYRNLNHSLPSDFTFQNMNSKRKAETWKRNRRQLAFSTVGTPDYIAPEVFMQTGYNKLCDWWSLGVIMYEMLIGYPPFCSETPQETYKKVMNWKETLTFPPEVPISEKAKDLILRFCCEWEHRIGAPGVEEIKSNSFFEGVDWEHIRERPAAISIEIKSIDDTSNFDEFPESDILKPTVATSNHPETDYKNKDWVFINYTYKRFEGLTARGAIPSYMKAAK
# Sequence of FLT1 (P17948 whole entry): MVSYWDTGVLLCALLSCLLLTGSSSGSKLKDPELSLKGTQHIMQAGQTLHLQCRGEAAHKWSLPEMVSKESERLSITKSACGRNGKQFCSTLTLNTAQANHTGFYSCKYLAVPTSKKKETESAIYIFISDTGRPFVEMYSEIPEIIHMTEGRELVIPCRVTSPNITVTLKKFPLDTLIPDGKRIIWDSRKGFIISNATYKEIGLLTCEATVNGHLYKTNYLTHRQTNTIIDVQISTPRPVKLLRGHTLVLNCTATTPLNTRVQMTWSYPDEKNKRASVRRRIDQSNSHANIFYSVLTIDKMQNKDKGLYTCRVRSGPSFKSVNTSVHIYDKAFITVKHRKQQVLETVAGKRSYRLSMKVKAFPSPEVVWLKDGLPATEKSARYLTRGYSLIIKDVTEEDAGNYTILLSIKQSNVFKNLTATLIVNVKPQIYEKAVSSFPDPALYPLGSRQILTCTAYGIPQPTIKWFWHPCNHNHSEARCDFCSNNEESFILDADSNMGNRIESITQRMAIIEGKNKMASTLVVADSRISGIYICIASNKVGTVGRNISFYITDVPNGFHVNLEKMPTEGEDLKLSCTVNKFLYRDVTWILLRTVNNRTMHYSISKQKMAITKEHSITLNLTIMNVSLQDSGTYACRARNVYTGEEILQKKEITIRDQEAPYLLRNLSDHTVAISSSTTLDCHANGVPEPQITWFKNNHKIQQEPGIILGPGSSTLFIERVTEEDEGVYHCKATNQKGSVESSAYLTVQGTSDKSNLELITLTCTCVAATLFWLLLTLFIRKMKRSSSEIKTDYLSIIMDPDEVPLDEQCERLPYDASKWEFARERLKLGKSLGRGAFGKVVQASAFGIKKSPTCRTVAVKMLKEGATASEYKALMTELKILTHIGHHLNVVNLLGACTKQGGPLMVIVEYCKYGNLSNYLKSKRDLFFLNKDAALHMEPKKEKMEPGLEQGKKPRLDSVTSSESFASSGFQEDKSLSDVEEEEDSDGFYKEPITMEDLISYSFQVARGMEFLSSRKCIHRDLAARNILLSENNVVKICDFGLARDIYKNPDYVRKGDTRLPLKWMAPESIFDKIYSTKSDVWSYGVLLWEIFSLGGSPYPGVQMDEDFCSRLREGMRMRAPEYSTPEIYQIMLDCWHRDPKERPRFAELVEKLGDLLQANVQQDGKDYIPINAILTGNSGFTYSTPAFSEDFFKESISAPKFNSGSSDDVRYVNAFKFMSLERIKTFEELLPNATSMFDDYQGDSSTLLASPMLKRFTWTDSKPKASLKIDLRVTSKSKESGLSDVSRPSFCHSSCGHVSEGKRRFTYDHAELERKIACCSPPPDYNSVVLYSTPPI
# Sequence of CLK3 (P49761 whole entry): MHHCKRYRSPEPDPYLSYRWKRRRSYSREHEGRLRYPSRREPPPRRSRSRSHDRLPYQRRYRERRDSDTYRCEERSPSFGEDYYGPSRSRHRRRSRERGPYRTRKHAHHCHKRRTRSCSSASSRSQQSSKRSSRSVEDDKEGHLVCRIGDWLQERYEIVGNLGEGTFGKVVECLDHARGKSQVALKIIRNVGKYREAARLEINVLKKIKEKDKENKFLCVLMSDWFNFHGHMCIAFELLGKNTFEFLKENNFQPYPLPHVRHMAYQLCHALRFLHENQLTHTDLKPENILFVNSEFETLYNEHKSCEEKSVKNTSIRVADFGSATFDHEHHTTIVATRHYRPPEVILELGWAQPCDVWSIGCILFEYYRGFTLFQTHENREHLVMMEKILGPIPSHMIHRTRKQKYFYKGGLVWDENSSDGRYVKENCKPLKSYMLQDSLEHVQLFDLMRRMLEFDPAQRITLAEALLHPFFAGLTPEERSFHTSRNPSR
# Sequence of BMPR1A (P36894 whole entry): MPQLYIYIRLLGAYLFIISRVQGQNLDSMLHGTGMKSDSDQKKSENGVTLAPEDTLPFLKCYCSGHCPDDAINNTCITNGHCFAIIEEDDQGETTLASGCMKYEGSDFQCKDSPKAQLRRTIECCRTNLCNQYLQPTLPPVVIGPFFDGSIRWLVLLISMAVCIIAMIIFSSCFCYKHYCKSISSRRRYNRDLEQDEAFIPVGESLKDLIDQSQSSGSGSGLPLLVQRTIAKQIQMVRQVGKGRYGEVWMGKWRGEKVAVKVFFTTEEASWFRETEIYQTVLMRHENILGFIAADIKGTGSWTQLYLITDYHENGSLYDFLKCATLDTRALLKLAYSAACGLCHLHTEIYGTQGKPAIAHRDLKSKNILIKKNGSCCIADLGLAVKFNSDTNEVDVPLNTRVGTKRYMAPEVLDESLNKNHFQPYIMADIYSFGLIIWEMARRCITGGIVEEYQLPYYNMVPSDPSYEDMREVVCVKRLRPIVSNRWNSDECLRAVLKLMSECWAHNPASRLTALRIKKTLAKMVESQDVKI
# T4 sequence (Q15418 whole entry): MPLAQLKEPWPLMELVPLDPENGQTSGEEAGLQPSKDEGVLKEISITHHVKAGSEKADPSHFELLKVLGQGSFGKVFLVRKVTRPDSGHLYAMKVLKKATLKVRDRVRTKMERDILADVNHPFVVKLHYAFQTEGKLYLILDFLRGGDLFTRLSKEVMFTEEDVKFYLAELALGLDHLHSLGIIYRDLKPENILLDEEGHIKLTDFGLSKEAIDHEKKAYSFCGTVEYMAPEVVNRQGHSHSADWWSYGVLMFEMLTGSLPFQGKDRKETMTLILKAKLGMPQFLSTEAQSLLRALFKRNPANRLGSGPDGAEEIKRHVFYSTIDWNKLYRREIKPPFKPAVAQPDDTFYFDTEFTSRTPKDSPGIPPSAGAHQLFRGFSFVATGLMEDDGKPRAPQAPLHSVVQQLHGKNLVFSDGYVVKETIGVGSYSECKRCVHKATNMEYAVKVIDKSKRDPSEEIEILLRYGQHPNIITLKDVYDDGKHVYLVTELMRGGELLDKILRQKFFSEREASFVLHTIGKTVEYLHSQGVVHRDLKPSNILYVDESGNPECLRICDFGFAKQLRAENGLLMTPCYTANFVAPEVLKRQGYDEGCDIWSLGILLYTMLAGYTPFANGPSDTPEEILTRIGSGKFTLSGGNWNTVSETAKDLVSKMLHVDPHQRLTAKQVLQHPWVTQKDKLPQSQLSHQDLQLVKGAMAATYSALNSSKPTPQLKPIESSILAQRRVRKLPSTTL
# Sequence of PIM2 (Q9P1W9 whole entry): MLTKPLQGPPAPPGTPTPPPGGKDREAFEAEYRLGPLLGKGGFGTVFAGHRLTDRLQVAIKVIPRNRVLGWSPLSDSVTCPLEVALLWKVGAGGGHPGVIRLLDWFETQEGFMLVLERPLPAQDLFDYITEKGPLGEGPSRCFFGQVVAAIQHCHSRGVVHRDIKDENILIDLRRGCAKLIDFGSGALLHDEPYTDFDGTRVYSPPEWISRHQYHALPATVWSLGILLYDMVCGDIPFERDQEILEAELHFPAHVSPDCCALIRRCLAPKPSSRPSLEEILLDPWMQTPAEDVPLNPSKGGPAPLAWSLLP
# Sequence of ABL2 (P42684 whole entry): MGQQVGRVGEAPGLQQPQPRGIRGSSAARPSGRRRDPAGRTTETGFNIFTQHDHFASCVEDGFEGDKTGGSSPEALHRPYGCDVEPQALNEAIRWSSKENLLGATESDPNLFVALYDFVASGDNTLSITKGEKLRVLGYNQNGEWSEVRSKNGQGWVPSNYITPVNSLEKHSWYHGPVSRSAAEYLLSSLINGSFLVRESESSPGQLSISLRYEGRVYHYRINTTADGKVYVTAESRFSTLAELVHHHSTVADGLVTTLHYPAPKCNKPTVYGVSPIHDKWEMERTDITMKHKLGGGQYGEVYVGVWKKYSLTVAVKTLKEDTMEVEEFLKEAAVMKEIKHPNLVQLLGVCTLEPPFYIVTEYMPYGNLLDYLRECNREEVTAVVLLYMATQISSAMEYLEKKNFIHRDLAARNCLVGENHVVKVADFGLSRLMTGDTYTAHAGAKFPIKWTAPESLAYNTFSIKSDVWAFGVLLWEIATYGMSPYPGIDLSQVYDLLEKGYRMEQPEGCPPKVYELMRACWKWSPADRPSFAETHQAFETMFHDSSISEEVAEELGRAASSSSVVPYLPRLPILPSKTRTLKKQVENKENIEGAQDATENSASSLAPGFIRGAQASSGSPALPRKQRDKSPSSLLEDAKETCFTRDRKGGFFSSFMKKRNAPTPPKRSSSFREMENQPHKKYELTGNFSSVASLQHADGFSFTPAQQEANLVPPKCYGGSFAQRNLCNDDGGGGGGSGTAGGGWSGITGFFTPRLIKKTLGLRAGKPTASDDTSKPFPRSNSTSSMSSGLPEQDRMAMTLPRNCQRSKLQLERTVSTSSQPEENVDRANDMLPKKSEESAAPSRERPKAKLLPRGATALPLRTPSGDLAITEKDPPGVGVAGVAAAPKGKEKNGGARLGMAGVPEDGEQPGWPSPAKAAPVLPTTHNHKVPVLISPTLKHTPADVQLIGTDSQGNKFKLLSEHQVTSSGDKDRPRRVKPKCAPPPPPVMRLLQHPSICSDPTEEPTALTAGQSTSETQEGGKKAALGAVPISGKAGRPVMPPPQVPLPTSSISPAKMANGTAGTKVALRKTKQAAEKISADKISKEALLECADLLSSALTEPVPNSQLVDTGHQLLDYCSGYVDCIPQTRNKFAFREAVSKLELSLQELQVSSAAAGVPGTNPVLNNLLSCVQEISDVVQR
smiles,measurement,setting,value
NC(=O)c1cccc2cn(-c3ccc([C@@H]4CCCNC4)cc3)nc12 [Niraparib],percent of control binding at 10 µM,[1]; [11],13%
same,percent of control binding at 10 µM,[2]; [11],85%
same,percent of control binding at 10 µM,[3]; [11],98%
same,percent of control binding at 10 µM,[4]; [11],96%
same,percent of control binding at 10 µM,[5]; [11],100%
same,percent of control binding at 10 µM,[6]; [11],80%
same,percent of control binding at 10 µM,[7]; [11],100%
same,percent of control binding at 10 µM,[8]; [11],98%
same,percent of control binding at 10 µM,[9]; [11],100%
same,percent of control binding at 10 µM,[10]; [11],94%
O=C(c1cc(Cc2n[nH]c(=O)c3ccccc23)ccc1F)N1CCN(C(=O)C2CC2)CC1 [Olaparib],percent of control binding at 10 µM,[1]; [12],100%
same,percent of control binding at 10 µM,[2]; [12],100%
same,percent of control binding at 10 µM,[3]; [12],80%
same,percent of control binding at 10 µM,[4]; [12],81%
same,percent of control binding at 10 µM,[5]; [12],99%
same,percent of control binding at 10 µM,[6]; [12],100%
same,percent of control binding at 10 µM,[7]; [12],89%
same,percent of control binding at 10 µM,[8]; [12],94%
same,percent of control binding at 10 µM,[9]; [12],100%
same,percent of control binding at 10 µM,[10]; [12],100%
CNCc1ccc(-c2[nH]c3cc(F)cc4c3c2CCNC4=O)cc1 [Rucaparib],percent of control binding at 10 µM,[1]; [13],36%
same,percent of control binding at 10 µM,[2]; [13],100%
same,percent of control binding at 10 µM,[3]; [13],77%
same,percent of control binding at 10 µM,[4]; [13],69%
same,percent of control binding at 10 µM,[5]; [13],93%
same,percent of control binding at 10 µM,[6]; [13],51%
same,percent of control binding at 10 µM,[7]; [13],75%
same,percent of control binding at 10 µM,[8]; [13],91%
same,percent of control binding at 10 µM,[9]; [13],69%
same,percent of control binding at 10 µM,[10]; [13],91%
Cn1ncnc1[C@H]1c2n[nH]c(=O)c3cc(F)cc(c23)N[C@@H]1c1ccc(F)cc1 [Talazoparib],percent of control binding at 10 µM,[1]; [14],98%
same,percent of control binding at 10 µM,[2]; [14],93%
same,percent of control binding at 10 µM,[3]; [14],85%
same,percent of control binding at 10 µM,[4]; [14],58%
same,percent of control binding at 10 µM,[5]; [14],100%
same,percent of control binding at 10 µM,[6]; [14],100%
same,percent of control binding at 10 µM,[7]; [14],17%
same,percent of control binding at 10 µM,[8]; [14],100%
same,percent of control binding at 10 µM,[9]; [14],72%
same,percent of control binding at 10 µM,[10]; [14],100%
